Source: the supplement of paper PMC10307832

Columns and labels:
Test in all cases: relative viability (nuclei count vs DMSO), 5 days (fraction); higher = more cells survive
GSK-J4 + Palbociclib = compound: CCOC(=O)CCNc1cc(N2CCc3ccccc3CC2)nc(-c2ccccn2)n1 [GSK-J4] + CC(=O)c1c(C)c2cnc(Nc3ccc(N4CCNCC4)cn3)nc2n(C2CCCC2)c1=O [Palbociclib] (partner 0.5 µM)
In short: (§1)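 Medians of duplicate plates are given as relative viability. That measure is the nuclei count in treated wells divided by the count in vehicle wells. Counts were taken on 4× images of lung cancer cell lines in 1536-well plates, 5 days after pin-tool dosing the day after seeding with one drug alone or a fixed anchor-drug dose plus five library-drug doses (not always all listed) in √10 steps.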

AZ3146 + Pictilisib = compound: CN1CCC(CC1)OC2=CC(=C(C=C2)NC3=NC=C4C(=N3)N(C(=O)N4C)C5CCCC5)OC [AZ3146] + CS(=O)(=O)N1CCN(Cc2cc3nc(-c4cccc5[nH]ncc45)nc(N4CCOCC4)c3s2)CC1 [Pictilisib] (partner 1 µM)
In short: as §1

GSK-J4 + Alpelisib = compound: CCOC(=O)CCNc1cc(N2CCc3ccccc3CC2)nc(-c2ccccn2)n1 [GSK-J4] + Cc1nc(NC(=O)N2CCC[C@H]2C(N)=O)sc1-c1ccnc(C(C)(C)C(F)(F)F)c1 [Alpelisib] (partner 2 µM)
In short: as §1

AZ3146 + Pemetrexed = compound: CN1CCC(CC1)OC2=CC(=C(C=C2)NC3=NC=C4C(=N3)N(C(=O)N4C)C5CCCC5)OC [AZ3146] + Nc1nc2[nH]cc(CCc3ccc(C(=O)N[C@@H](CCC(=O)O)C(=O)O)cc3)c2c(=O)[nH]1 [Pemetrexed] (partner 0.2 µM)
In short: as §1

Row | Cell Line | relative viability (GSK-J4 + Palbociclib; first compound 0.5 µM) | relative viability (GSK-J4 + Palbociclib; first compound 1.581 µM) | relative viability (GSK-J4 + Palbociclib; first compound 5 µM) | relative viability (GSK-J4 + Palbociclib; first compound 15.81 µM) | relative viability (GSK-J4 + Palbociclib; first compound 50 µM) | relative viability (AZ3146 + Pictilisib; first compound 0.08 µM) | relative viability (AZ3146 + Pictilisib; first compound 0.253 µM) | relative viability (AZ3146 + Pictilisib; first compound 0.8 µM) | relative viability (AZ3146 + Pictilisib; first compound 2.53 µM) | relative viability (AZ3146 + Pictilisib; first compound 8 µM) | relative viability (GSK-J4 + Alpelisib; first compound 0.5 µM) | relative viability (GSK-J4 + Alpelisib; first compound 1.581 µM) | relative viability (GSK-J4 + Alpelisib; first compound 5 µM) | relative viability (GSK-J4 + Alpelisib; first compound 15.81 µM) | relative viability (GSK-J4 + Alpelisib; first compound 50 µM) | relative viability (AZ3146 + Pemetrexed; first compound 0.08 µM) | relative viability (AZ3146 + Pemetrexed; first compound 0.253 µM) | relative viability (AZ3146 + Pemetrexed; first compound 0.8 µM) | relative viability (AZ3146 + Pemetrexed; first compound 2.53 µM) | relative viability (AZ3146 + Pemetrexed; first compound 8 µM)
1 | LC-2-ad | 0.438 | 0.404 | 0.447 | 0.49 | 0.47 | 0.398 | 0.483 | 0.425 | 0.579 | 0.41 | 0.725 | 0.764 | 0.857 | 0.877 | 0.87 | 0.245 | 0.29 | 0.271 | 0.262 | 0.259
2 | LXF-289 | 0.588 | 0.546 | 0.58 | 0.555 | 0.533 | 0.693 | 0.776 | 0.779 | 0.824 | 0.642 | 0.971 | 0.957 | 1.04 | 0.991 | 0.956 | 0.953 | 0.85 | 0.912 | 0.924 | 0.799
3 | NCI-H2347 | 0.448 | 0.374 | 0.411 | 0.436 | 0.419 | 0.604 | 0.542 | 0.654 | 1.12 | 0.422 | 1.02 | 0.659 | 0.933 | 1.05 | 0.722 | 0.42 | 0.418 | 0.458 | 0.404 | 0.416
4 | RERF-LC-KJ | 1.07 | 0.954 | 1.13 | 1.04 | 0.728 | 0.513 | 0.53 | 0.549 | 0.696 | 0.516 | 0.65 | 0.732 | 0.803 | 0.744 | 0.551 | 0.43 | 0.485 | 0.461 | 0.473 | 0.488
5 | NCI-H1734 | 0.332 | 0.318 | 0.346 | 0.335 | 0.281 | 0.501 | 0.522 | 0.418 | 0.474 | 0.499 | 0.679 | 0.597 | 0.568 | 0.671 | 0.591 | 0.414 | 0.433 | 0.388 | 0.428 | 0.413
6 | NCI-H1915 | 0.533 | 0.514 |  | 0.481 | 0.514 | 0.748 | 0.911 | 1.11 | 1 | 1.07 | 0.972 | 0.97 | 1.04 | 0.99 | 1.01 | 0.502 | 0.517 | 0.602 | 0.511 | 0.49
7 | NCI-H838 | 0.222 | 0.204 | 0.158 | 0.194 | 0.226 | 0.557 | 0.467 | 0.39 | 0.387 | 0.266 | 1.02 | 0.927 |  | 0.962 | 0.905 | 0.233 | 0.239 | 0.283 | 0.269 | 0.211
8 | HCC-15 | 0.712 | 0.528 | 0.701 | 0.694 | 0.488 | 0.721 | 0.773 | 0.765 | 0.737 | 0.728 | 0.909 | 0.751 | 0.912 | 0.868 | 0.571 | 0.222 | 0.22 | 0.221 | 0.224 | 0.207
9 | NCI-H650 | 0.309 | 0.283 |  | 0.255 | 0.239 | 0.661 | 0.837 | 0.634 | 0.905 | 1.01 | 0.926 | 1.11 | 0.729 | 1.07 | 0.767 | 0.871 | 0.747 | 0.78 | 0.949 | 0.948
10 | NCI-H1651 | 0.502 | 0.47 | 0.504 | 0.504 | 0.509 | 0.556 | 0.668 | 0.576 | 0.475 | 0.489 | 0.888 | 0.814 | 0.957 | 0.93 | 0.892 | 0.58 | 0.579 | 0.463 | 0.569 | 0.595
11 | NCI-H2405 | 0.525 | 0.458 |  | 0.522 | 0.508 | 0.533 |  | 0.418 | 0.451 | 0.58 | 0.814 | 0.619 |  | 0.897 | 0.935 | 1.12 | 1.06 | 1.1 | 1.11 | 1.04
12 | LU99A | 0.403 | 0.375 |  | 0.383 | 0.344 | 0.318 | 0.351 | 0.32 | 0.376 | 0.351 | 0.448 | 0.494 | 0.535 | 0.498 | 0.322 |  | 0.188 | 0.181 | 0.165 | 0.186
13 | H3255 | 0.325 | 0.299 | 0.257 | 0.279 | 0.284 | 0.514 | 0.49 | 0.466 | 0.507 | 0.518 | 0.591 | 0.64 | 0.614 | 0.593 | 0.531 | 0.597 | 0.536 | 0.542 | 0.6 | 0.574
14 | NCI-H1993 | 0.588 | 0.623 | 0.606 | 0.542 | 0.481 | 0.806 | 0.797 | 0.788 | 0.839 | 0.762 | 0.657 | 0.643 | 0.702 | 0.667 | 0.621 | 0.567 | 0.542 | 0.539 | 0.619 | 0.561
15 | NCI-H322M | 0.493 | 0.446 | 0.497 | 0.435 | 0.538 | 0.585 | 0.478 | 0.439 | 0.491 | 0.512 | 0.901 | 0.718 | 0.734 | 0.747 | 0.733 | 0.59 | 0.585 | 0.609 | 0.574 | 0.642
16 | NCI-H460 | 0.175 |  | 0.167 | 0.137 | 0.149 | 0.293 | 0.323 | 0.297 | 0.416 | 0.461 | 0.54 | 0.377 | 0.554 | 0.456 | 0.433 | 0.0552 | 0.0628 | 0.0797 | 0.06 | 0.0682
